The results in this text go back to ChEMBL document CHEMBL4402598, “Design and Synthesis of Bitopic 2-Phenylcyclopropylmethylamine (PCPMA) Derivatives as Selective Dopamine D3 Receptor Ligands” (J Med Chem, 2020).

Structures are written as SMILES. Where only a bound is given, the exact number is not on record here.

One experiment concerns the target T1, D(4) dopamine receptor (Homo sapiens, UniProt P21917).
T1 sequence (P21917 whole entry): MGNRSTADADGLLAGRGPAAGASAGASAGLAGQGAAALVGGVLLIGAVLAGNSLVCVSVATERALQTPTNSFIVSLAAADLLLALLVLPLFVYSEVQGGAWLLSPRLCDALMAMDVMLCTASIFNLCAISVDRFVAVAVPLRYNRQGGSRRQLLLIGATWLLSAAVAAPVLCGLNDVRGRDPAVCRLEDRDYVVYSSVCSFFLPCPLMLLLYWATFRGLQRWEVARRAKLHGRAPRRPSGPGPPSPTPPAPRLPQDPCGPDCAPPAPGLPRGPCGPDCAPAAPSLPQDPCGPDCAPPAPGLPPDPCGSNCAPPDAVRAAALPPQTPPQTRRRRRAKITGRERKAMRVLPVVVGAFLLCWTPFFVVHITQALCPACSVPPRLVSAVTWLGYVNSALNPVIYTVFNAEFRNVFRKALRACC
Kind of experiment: Displacement of [3H]-N-methylspiperone from recombinant human D4 receptor stably expressed in HEK cell membranes measured after 90 mins by microbeta scintillation counting method. (In general: Loss of bound radioactivity is the signal in a displacement assay; it reports binding, not function.)

Another experiment addresses D(1B) dopamine receptor (Homo sapiens, UniProt P21918). Kind of experiment: Displacement of [3H]-SCH23390 from recombinant human D5 receptor transiently expressed in HEKT cell membranes measured after 90 mins by microbeta scintillation counting method.
Another experiment has as its target D(3) dopamine receptor (Homo sapiens, UniProt P35462). The experiment in a line: Displacement of [3H]-N-methylspiperone from recombinant human D3 receptor (unknown origin) measured after 90 mins by microbeta scintillation counting method.
The target of the next experiment is D(1A) dopamine receptor (Homo sapiens, UniProt P21728). Kind of experiment: Displacement of [3H]-SCH23390 from recombinant human D1 receptor transiently expressed in HEKT cell membranes measured after 90 mins by microbeta scintillation counting method.
The target of the next experiment is D(2) dopamine receptor (Homo sapiens, UniProt P14416). Kind of experiment: Displacement of [3H]-N-methylspiperone from recombinant human D2 receptor stably expressed in fibroblast cell membranes measured after 90 mins by microbeta scintillation counting method.
Experiment [1] concerns the target T2, 5-hydroxytryptamine receptor 2C (Homo sapiens, UniProt P28335).
T2 sequence (P28335 whole entry): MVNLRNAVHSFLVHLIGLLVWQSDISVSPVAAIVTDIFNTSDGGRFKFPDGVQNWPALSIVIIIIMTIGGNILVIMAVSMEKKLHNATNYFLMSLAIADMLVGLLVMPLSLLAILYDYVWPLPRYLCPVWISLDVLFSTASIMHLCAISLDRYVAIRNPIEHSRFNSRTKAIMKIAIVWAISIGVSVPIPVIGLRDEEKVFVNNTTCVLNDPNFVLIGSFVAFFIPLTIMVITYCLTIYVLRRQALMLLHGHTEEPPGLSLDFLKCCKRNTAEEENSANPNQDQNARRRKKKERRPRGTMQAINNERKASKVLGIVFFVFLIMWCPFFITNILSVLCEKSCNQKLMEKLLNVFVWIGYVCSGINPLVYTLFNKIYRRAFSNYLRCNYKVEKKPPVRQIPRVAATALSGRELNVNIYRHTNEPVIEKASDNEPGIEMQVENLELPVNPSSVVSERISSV
The experiment in a line: Displacement of [3H]-Mesulergine from recombinant human 5HT2C receptor expressed in HEKT cell membranes measured after 90 mins by microbeta scintillation counting method.

D(1B) dopamine receptor, sequence (P21918 whole entry): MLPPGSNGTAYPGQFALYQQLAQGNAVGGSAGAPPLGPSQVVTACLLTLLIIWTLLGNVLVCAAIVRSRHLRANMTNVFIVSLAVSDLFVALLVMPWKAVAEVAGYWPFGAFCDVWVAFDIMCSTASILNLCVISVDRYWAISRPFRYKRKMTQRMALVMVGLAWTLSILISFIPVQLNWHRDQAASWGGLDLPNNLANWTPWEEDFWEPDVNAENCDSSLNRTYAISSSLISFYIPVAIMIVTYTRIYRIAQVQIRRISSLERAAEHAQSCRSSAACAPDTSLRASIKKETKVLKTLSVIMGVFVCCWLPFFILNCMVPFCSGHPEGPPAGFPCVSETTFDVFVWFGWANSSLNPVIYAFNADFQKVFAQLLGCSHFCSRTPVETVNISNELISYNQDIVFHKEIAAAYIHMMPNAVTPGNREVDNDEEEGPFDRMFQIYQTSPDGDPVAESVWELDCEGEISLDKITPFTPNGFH
D(1A) dopamine receptor, sequence (P21728 whole entry): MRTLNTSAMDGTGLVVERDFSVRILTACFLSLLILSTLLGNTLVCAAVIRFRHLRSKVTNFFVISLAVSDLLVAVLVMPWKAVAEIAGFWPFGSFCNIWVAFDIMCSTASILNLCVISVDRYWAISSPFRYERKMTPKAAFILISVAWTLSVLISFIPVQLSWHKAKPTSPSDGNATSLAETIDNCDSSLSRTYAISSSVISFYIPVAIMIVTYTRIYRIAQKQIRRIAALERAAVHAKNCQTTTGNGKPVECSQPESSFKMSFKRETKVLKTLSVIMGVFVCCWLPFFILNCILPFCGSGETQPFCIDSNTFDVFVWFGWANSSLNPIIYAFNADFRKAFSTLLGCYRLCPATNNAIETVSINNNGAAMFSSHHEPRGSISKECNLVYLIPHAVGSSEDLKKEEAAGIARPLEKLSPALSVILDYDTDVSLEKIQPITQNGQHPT
D(3) dopamine receptor, sequence (P35462 whole entry): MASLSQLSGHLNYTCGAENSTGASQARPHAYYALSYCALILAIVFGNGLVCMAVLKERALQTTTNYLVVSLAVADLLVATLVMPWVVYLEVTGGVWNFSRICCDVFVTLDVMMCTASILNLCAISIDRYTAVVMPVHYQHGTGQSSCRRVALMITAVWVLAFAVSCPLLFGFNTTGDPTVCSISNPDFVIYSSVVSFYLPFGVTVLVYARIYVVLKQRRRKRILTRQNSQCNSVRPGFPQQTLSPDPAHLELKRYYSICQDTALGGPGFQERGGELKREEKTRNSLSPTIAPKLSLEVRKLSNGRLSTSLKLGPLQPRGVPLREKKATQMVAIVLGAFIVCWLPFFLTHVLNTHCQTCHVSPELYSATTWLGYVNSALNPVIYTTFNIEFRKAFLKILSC
D(2) dopamine receptor, sequence (P14416 whole entry): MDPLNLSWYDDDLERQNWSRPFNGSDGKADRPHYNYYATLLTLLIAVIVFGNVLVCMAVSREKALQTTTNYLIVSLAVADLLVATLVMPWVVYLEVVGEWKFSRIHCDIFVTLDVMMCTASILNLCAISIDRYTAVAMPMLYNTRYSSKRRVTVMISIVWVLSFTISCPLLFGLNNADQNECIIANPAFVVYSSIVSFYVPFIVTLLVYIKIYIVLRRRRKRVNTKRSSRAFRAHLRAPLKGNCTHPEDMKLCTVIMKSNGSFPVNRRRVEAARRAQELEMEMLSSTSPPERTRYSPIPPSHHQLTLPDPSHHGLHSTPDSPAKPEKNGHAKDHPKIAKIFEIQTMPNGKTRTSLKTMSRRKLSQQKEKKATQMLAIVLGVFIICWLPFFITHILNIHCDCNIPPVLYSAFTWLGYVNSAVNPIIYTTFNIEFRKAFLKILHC

What is called Ki is a dissociation constant, usually derived from enzyme kinetics or from competition with a known ligand. `CCCN(CCCCNC(=O)c1cc2ccccc2[nH]1)CC1CC1c1ccc(Cl)cc1` (stereo not given): the Ki was found to be 510 nM at D(4) dopamine receptor; 9.29 µM on D(1B) dopamine receptor; 25.7 nM on D(3) dopamine receptor; 649 nM on D(1A) dopamine receptor; 3160 nM on D(2) dopamine receptor; 137 nM in experiment [1].
On to `CCCN(CCCCNC(=O)c1cc2ccccc2[nH]1)CC1CC1c1cccc(F)c1` (stereo not given), for which the Ki is 671 nM on D(4) dopamine receptor; greater than 5 µM on D(1B) dopamine receptor; 18.8 nM on D(3) dopamine receptor; 1100 nM on D(1A) dopamine receptor; 3490 nM at D(2) dopamine receptor; 106 nM in experiment [1].
For `CCCN(CCCCNC(=O)c1ccc2ccccc2c1)CC1CC1c1cc(Cl)ccc1OC` (stereo not given), the inhibition constant Ki on D(4) dopamine receptor was 945 nM; at D(1B) dopamine receptor it was 1.1 µM; on D(3) dopamine receptor, 26.9 nM; on D(1A) dopamine receptor, 930 nM; at D(2) dopamine receptor, 1120 nM; in experiment [1], 85 nM.
On to `CCCN(CCCCNC(=O)c1ccc(-c2ccccn2)cc1)CC1CC1c1cccc(Cl)c1` (stereo not given), for which the Ki is 2330 nM on D(4) dopamine receptor; 5.58 µM at D(1B) dopamine receptor; 26.5 nM on D(3) dopamine receptor; 832 nM on D(1A) dopamine receptor; greater than 5000 nM on D(2) dopamine receptor; 898 nM in experiment [1].
Turning to `CCCN(CCCCNC(=O)c1cc2ccccc2[nH]1)CC1CC1c1cccc(Cl)c1Cl` (racemic), the Ki on D(4) dopamine receptor is 1130 nM; at D(1B) dopamine receptor it was 3.5 µM; on D(1A) dopamine receptor, 891 nM; at D(2) dopamine receptor, 1500 nM; in experiment [1], 105 nM.
Consider `COc1ccc(F)cc1C1CC1CN(CCCSc1nnc(-c2ccccc2)n1C)C(C)C` (stereo not given), for which the inhibitory constant (Ki) on D(4) dopamine receptor was 326 nM; at D(1B) dopamine receptor it was greater than 5 µM; on D(3) dopamine receptor, 105 nM; at D(1A) dopamine receptor it was greater than 5000 nM; at D(2) dopamine receptor, 513 nM; in experiment [1], 495 nM.
In the case of `CCCN(CCCCNC(=O)c1ccc(-c2ccccn2)cc1)CC1CC1c1cccc(F)c1` (stereo not given), the inhibition constant Ki is 2220 nM at D(4) dopamine receptor; greater than 5 µM at D(1B) dopamine receptor; 45.4 nM on D(3) dopamine receptor; 2910 nM at D(1A) dopamine receptor; greater than 5000 nM on D(2) dopamine receptor; 1340 nM in experiment [1].
Turning to `CCCN(CCCCNC(=O)c1ccc(-c2ccccn2)cc1)CC1CC1c1ccc(C(F)(F)F)cc1` (stereo not given), the Ki at D(4) dopamine receptor is 2170 nM; at D(1B) dopamine receptor, 7.7 µM; on D(3) dopamine receptor, 23.4 nM; at D(1A) dopamine receptor, 1420 nM; on D(2) dopamine receptor it was greater than 5000 nM; in experiment [1], 2360 nM.
Turning to `CCCN(CCCSc1nnc(-c2ccccc2)n1C)CC1CC1c1cc(Cl)ccc1OC` (stereo not given), the inhibition constant Ki on D(4) dopamine receptor is 130 nM; at D(1B) dopamine receptor, greater than 5 µM; at D(3) dopamine receptor, 36.7 nM; at D(1A) dopamine receptor, 1920 nM; at D(2) dopamine receptor, 233 nM; in experiment [1] it was 535 nM.
With `CCOc1ccc(F)cc1C1CC1CN(C)CCCSc1nnc(-c2ccccc2)n1C` (stereo not given), the Ki at D(4) dopamine receptor is 989 nM; at D(1B) dopamine receptor, greater than 5 µM; at D(3) dopamine receptor, 550 nM; on D(1A) dopamine receptor it was 1120 nM; on D(2) dopamine receptor, greater than 5000 nM.
For `CCOc1ccc(F)cc1C1CC1CN(CC)CCCSc1nnc(-c2ccccc2)n1C` (stereo not given) the same measures were 101 nM, 1.58 µM, 55 nM, 1150 nM and 380 nM.
On to `CCCN(CCCCNC(=O)c1cc2ccccc2[nH]1)CC1CC1c1ccc(F)cc1` (stereo not given), for which the Ki on D(4) dopamine receptor was 1610 nM; at D(1B) dopamine receptor, 10.5 µM; at D(3) dopamine receptor, 45.7 nM; on D(1A) dopamine receptor, 1460 nM; on D(2) dopamine receptor it was 5930 nM; in experiment [1], 219 nM.
As for `CCCN(CCCCNC(=O)c1ccc2ccccc2c1)CC1CC1c1ccc(F)cc1` (stereo not given), the Ki on D(4) dopamine receptor was 2170 nM; at D(1B) dopamine receptor, greater than 5 µM; on D(3) dopamine receptor, 55.8 nM; at D(1A) dopamine receptor, 992 nM; on D(2) dopamine receptor, 5620 nM; in experiment [1] it was 238 nM.
Consider `COc1ccc(F)cc1C1CC1CNCCCSc1nnc(-c2ccccc2)n1C` (stereo not given), for which the Ki at D(4) dopamine receptor turned out to be 133 nM; on D(1B) dopamine receptor it was 0.926 µM; on D(3) dopamine receptor, 89.8 nM; at D(1A) dopamine receptor it was 631 nM; at D(2) dopamine receptor, 253 nM.
Take `CCCN(CCCCNC(=O)c1ccc2ccccc2c1)CC1CC1c1cccc(F)c1` (stereo not given): the Ki is 1300 nM on D(4) dopamine receptor; greater than 5 µM on D(1B) dopamine receptor; 26.7 nM on D(3) dopamine receptor; 1310 nM at D(1A) dopamine receptor; 4820 nM on D(2) dopamine receptor; 165 nM in experiment [1].
Consider `CCCN(CCCCNC(=O)c1ccc(-c2ccccn2)cc1)CC1CC1c1ccc(F)cc1` (stereo not given), for which the Ki at D(4) dopamine receptor is 2880 nM; at D(1B) dopamine receptor, greater than 5 µM; on D(3) dopamine receptor, 106 nM; on D(1A) dopamine receptor, 3630 nM; on D(2) dopamine receptor, greater than 5000 nM; in experiment [1] it was 2170 nM.
For the compound `CCCN(CCCCNC(=O)c1ccc(-c2ccccn2)cc1)CC1CC1c1ccc(Cl)cc1` (stereo not given), the Ki at D(4) dopamine receptor was 1410 nM; on D(1B) dopamine receptor, 8.84 µM; at D(3) dopamine receptor, 17.6 nM; on D(1A) dopamine receptor, 1310 nM; on D(2) dopamine receptor it was greater than 5000 nM; in experiment [1], 284 nM.
In the case of `CCCN(CCCSc1nnc(-c2ccccc2)n1C)CC1CC1c1cc(F)ccc1OC` (stereo not given), the Ki was 85.8 nM on D(4) dopamine receptor; greater than 5 µM on D(1B) dopamine receptor; 87.1 nM on D(3) dopamine receptor; 1670 nM at D(1A) dopamine receptor; 1160 nM at D(2) dopamine receptor; 412 nM in experiment [1].
As to `CCCN(CCCCNC(=O)c1ccc2ccccc2c1)CC1CC1c1cccc(Cl)c1` (stereo not given), the Ki at D(4) dopamine receptor is 1320 nM; at D(1B) dopamine receptor it was 8.67 µM; at D(3) dopamine receptor, 15.5 nM; at D(1A) dopamine receptor, 940 nM; at D(2) dopamine receptor, 4010 nM; in experiment [1], 136 nM.
Take `CCN(CCCSc1nnc(-c2ccccc2)n1C)CC1CC1c1cc(Cl)ccc1OC` (stereo not given): the Ki on D(4) dopamine receptor is 241 nM; at D(1B) dopamine receptor it was greater than 5 µM; on D(3) dopamine receptor it was 31.6 nM; at D(1A) dopamine receptor, 1510 nM; at D(2) dopamine receptor, 238 nM; in experiment [1], 203 nM.
Regarding `CCN(CCCSc1nnc(-c2ccccc2)n1C)CC1CC1c1cc(F)ccc1OCCF` (stereo not given), the inhibition constant (Ki) on D(4) dopamine receptor worked out at 179 nM; on D(1B) dopamine receptor, 2 µM; at D(3) dopamine receptor, 113 nM; at D(1A) dopamine receptor it was 584 nM; on D(2) dopamine receptor it was 845 nM.
In the same order, the values of `CCN(CCCSc1nnc(-c2ccccc2)n1C)CC1CC1c1cc(F)ccc1OC` (stereo not given) are 30 nM, 1.85 µM, 44 nM, 1720 nM and 275 nM.
In the same order, the values of `CCOc1ccc(F)cc1C1CC1CNCCCSc1nnc(-c2ccccc2)n1C` (stereo not given) are 501 nM, 0.589 µM, 219 nM, 295 nM and 661 nM.
In the same order, the values of `Cn1c(SCCCNCC2CC2c2cc(F)ccc2OCCF)nnc1-c1ccccc1` (stereo not given) are 962 nM, 1.08 µM, 525 nM, 369 nM and 1500 nM.
With `COc1ccc(F)cc1C1CC1CN(C)CCCSc1nnc(-c2ccccc2)n1C` (stereo not given), the Ki turned out to be 85.1 nM on D(4) dopamine receptor; 1 µM on D(1B) dopamine receptor; 84.5 nM on D(3) dopamine receptor; 794 nM on D(1A) dopamine receptor; 324 nM at D(2) dopamine receptor.
For `CCCN(CCCCNC(=O)c1ccc2ccccc2c1)CC1CC1c1cccc(Cl)c1Cl` (racemic), the inhibition constant Ki came out at 1340 nM at D(4) dopamine receptor; 4.02 µM on D(1B) dopamine receptor; 891 nM on D(1A) dopamine receptor; 2100 nM on D(2) dopamine receptor; 123 nM in experiment [1].
In the case of `CCCN(CCCCNC(=O)c1ccc(-c2ccccn2)cc1)CC1CC1c1cc(F)ccc1OC` (racemic), the Ki was 1140 nM on D(4) dopamine receptor; greater than 5 µM on D(1B) dopamine receptor; 1760 nM at D(1A) dopamine receptor; 3140 nM on D(2) dopamine receptor; 53 nM in experiment [1].
As to `CCCN(CCCCNC(=O)c1ccc(-c2ccccn2)cc1)CC1CC1c1cccc(Cl)c1Cl` (racemic), the Ki was 2010 nM on D(4) dopamine receptor, greater than 5 µM at D(1B) dopamine receptor, 1650 nM on D(1A) dopamine receptor and 97.7 nM in experiment [1].
For `CN(CCCSc1nnc(-c2ccccc2)n1C)CC1CC1c1cc(F)ccc1OCCF` (stereo not given), the inhibitory constant (Ki) worked out at 977 nM at D(4) dopamine receptor; 2.15 µM at D(1B) dopamine receptor; 562 nM on D(3) dopamine receptor; 1470 nM at D(1A) dopamine receptor; 2440 nM at D(2) dopamine receptor.
